# Assay: INS HCl solubility and stability in isotonic buffers of different pH (5 mg/ml in buffer, diluted to 1 mg/ml, LC-MS)
# Type: physicochemical
# Method: Analytical HPLC-MS was performed using an Agilent 1260 series Liquid Chromatograph/Mass Selective Detector (MSD, Single Quadrupole) equipped with an electrospray interface and a UV diode array detector. Analyses were performed on an ACE C8, 50×3.0 mm, 3 μm column, with an isocratic 0.1% formic acid/ACN (19%) eluent, at a rate of 1 ml/min over a period of 5 minutes. UV absorption was measured at 220 nm and 215-395 nm. MS analysis was performed with ESI (electron spray ionization) with a positive ionization method. PBS isotonic buffer was prepared from 1 tablet of Sigma Phosphate buffer saline P4417, in 200 ml of deionized water (according to product reconstitution instructions). Acetate isotonic buffers were prepared from sodium acetate/acetic acid in water in 150 mM concentration. NaOH 50% solution was used to adjust the pH. NaOAc solution was prepared by dissolving 1.23 gr in 100 ml water. Acetic acid solution was prepared by adding 945 μl of acetic acid to 100 ml water. […] The samples were further diluted to 1 mg/ml before analyzing by HPLC. The samples were prepared by dilution of 80 μl of reaction solution with 320 μl of MeOH. Each sample was filtered through PTFE 0.45 um filter vial. The samples were run in LC-MS and data used for calculation concentration in buffer. All injections for stability assay were performed using 20 μl due to low peak intensity with 2 μl. Final concentration was calculated accordingly.
# [1] = PBS buffer pH 7.4, at 5° C. and at 25° C., 0 hours
# [2] = acetate buffer pH 4, 5° C., 0 hours
# [3] = acetate buffer pH 4, 5° C., 24 hours
# [4] = acetate buffer pH 4, 5° C., 168 hours
# [5] = acetate buffer pH 4, 25° C., 0 hours
# [6] = acetate buffer pH 4, 25° C., 24 hours
# [7] = acetate buffer pH 4, 25° C., 168 hours
# [8] = acetate buffer pH 6, 5° C., 0 hours
# [9] = acetate buffer pH 6, 5° C., 24 hours
# [10] = acetate buffer pH 6, 5° C., 168 hours
# [11] = acetate buffer pH 6, 25° C., 0 hours
# [12] = acetate buffer pH 6, 25° C., 24 hours
# [13] = acetate buffer pH 6, 25° C., 168 hours
sequence,measurement,setting,value
WTAVQMAVFIHNFKRK [INS],Area,[1],201.90 mAU*S
same,Assay %,[1],2.91%
same,Concentration calculated from LC-MS data,[1],30 µg/mL
same,Area,"PBS buffer pH 7.4, at 5° C. and at 25° C., 24 hours",Not observed
same,Area,"PBS buffer pH 7.4, at 5° C. and at 25° C., 168 hours",Not observed
same,Solubility in PBS buffer pH 7.4,a white precipitate was observed,no solubility at all
same,Assay %,[2],66.84%
same,Concentration calculated from LC-MS data,[2],646 µg/mL
same,Assay %,[3],62.32%
same,Concentration calculated from LC-MS data,[3],602 µg/mL
same,Assay %,[4],62.00%
same,Concentration calculated from LC-MS data,[4],599 µg/mL
same,Assay %,[5],66.87%
same,Concentration calculated from LC-MS data,[5],646 µg/mL
same,Assay %,[6],66.25%
same,Concentration calculated from LC-MS data,[6],640 µg/mL
same,Assay %,[7],36.75%
same,Concentration calculated from LC-MS data,[7],355 µg/mL
same,Assay %,[8],73.49%
same,Concentration calculated from LC-MS data,[8],729 µg/mL
same,Assay %,[9],53.43%
same,Concentration calculated from LC-MS data,[9],530 µg/mL
same,Assay %,[10],44.15%
same,Concentration calculated from LC-MS data,[10],438 µg/mL
same,Assay %,[11],73.49%
same,Concentration calculated from LC-MS data,[11],729 µg/mL
same,Assay %,[12],52.42%
same,Concentration calculated from LC-MS data,[12],520 µg/mL
same,Assay %,[13],21.98%
same,Concentration calculated from LC-MS data,[13],218 µg/mL
same,Assay at time zero,acetate buffers pH 4 and pH 6,about 70%
same,Stability at 5° C. versus 25° C.,acetate buffers pH 4 and pH 6,better stability at 5 °C compared to the samples at 25 °C
